{
  "source": "PubChem BioAssay (NCI)",
  "assay_in_all_cases": "NCI anticancer screen, dose series, 48 h",
  "key": {"786-0 renal": {"test_system": "786-0 renal"}, "ACHN renal": {"test_system": "ACHN renal"}, "CCRF-CEM leukemia": {"test_system": "CCRF-CEM leukemia"}, "DU-145 prostate": {"test_system": "DU-145 prostate"}, "EKVX NSCLC": {"test_system": "EKVX NSCLC"}, "HCC-2998 colon": {"test_system": "HCC-2998 colon"}, "HCT-116 colon": {"test_system": "HCT-116 colon"}, "HL-60(TB) leukemia": {"test_system": "HL-60(TB) leukemia"}, "HOP-62 NSCLC": {"test_system": "HOP-62 NSCLC"}, "HOP-92 NSCLC": {"test_system": "HOP-92 NSCLC"}, "HT29 colon": {"test_system": "HT29 colon"}, "IGROV1 ovarian": {"test_system": "IGROV1 ovarian"}, "K-562 leukemia": {"test_system": "K-562 leukemia"}, "KM12 colon": {"test_system": "KM12 colon"}, "M14 melanoma": {"test_system": "M14 melanoma"}, "MCF7 breast": {"test_system": "MCF7 breast"}, "MDA-MB-231 breast": {"test_system": "MDA-MB-231 breast"}, "MDA-N": {"test_system": "MDA-N"}, "MOLT-4 leukemia": {"test_system": "MOLT-4 leukemia"}, "NCI-H460 lung": {"test_system": "NCI-H460 lung"}, "NCI-H522 lung": {"test_system": "NCI-H522 lung"}, "OVCAR-3 ovarian": {"test_system": "OVCAR-3 ovarian"}, "OVCAR-4 ovarian": {"test_system": "OVCAR-4 ovarian"}, "OVCAR-5 ovarian": {"test_system": "OVCAR-5 ovarian"}, "OVCAR-8 ovarian": {"test_system": "OVCAR-8 ovarian"}, "PC-3 prostate": {"test_system": "PC-3 prostate"}, "RPMI-8226 leukemia": {"test_system": "RPMI-8226 leukemia"}, "SF-268 CNS": {"test_system": "SF-268 CNS"}, "SF-295 CNS": {"test_system": "SF-295 CNS"}, "SF-539 CNS": {"test_system": "SF-539 CNS"}, "SK-MEL-2 melanoma": {"test_system": "SK-MEL-2 melanoma"}, "SK-MEL-28 melanoma": {"test_system": "SK-MEL-28 melanoma"}, "SK-OV-3 ovarian": {"test_system": "SK-OV-3 ovarian"}, "SN12C renal": {"test_system": "SN12C renal"}, "SNB-75 CNS": {"test_system": "SNB-75 CNS"}, "SW-620 colon": {"test_system": "SW-620 colon"}, "TK-10 renal": {"test_system": "TK-10 renal"}, "UACC-257 melanoma": {"test_system": "UACC-257 melanoma"}, "UACC-62 melanoma": {"test_system": "UACC-62 melanoma"}, "UO-31 renal": {"test_system": "UO-31 renal"}},
  "note": "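Cells were grown in 96-well plates and exposed to each compound for 48 hours at five concentrations; endpoints were interpolated linearly between bracketing concentrations, or set to the highest concentration if not reached. TGI: total growth inhibition.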",
  "data": [
    {"smiles": "CN1C(=O)C2(Cc3cn(C45CC67SSC(CO)(C(=O)N6C4Nc4ccccc45)N(C)C7=O)c4ccccc34)SSC1(CO)C(=O)N2C", "note": "(stereo not given)", "values": [
      {"measurement": "TGI", "setting": "786-0 renal", "value": 28.3, "unit": "nM"},
      {"measurement": "TGI", "setting": "ACHN renal", "value": 77.6, "unit": "nM"},
      {"measurement": "TGI", "setting": "CCRF-CEM leukemia", "value": "> 100", "unit": "µM"},
      {"measurement": "TGI", "setting": "DU-145 prostate", "value": 173, "unit": "nM"},
      {"measurement": "TGI", "setting": "EKVX NSCLC", "value": 166, "unit": "nM"},
      {"measurement": "TGI", "setting": "HCC-2998 colon", "value": 136, "unit": "nM"},
      {"measurement": "TGI", "setting": "HCT-116 colon", "value": 115, "unit": "nM"},
      {"measurement": "TGI", "setting": "HL-60(TB) leukemia", "value": "> 100", "unit": "µM"},
      {"measurement": "TGI", "setting": "HOP-62 NSCLC", "value": 277, "unit": "nM"},
      {"measurement": "TGI", "setting": "HOP-92 NSCLC", "value": 771, "unit": "nM"},
      {"measurement": "TGI", "setting": "HT29 colon", "value": 16.4, "unit": "nM"},
      {"measurement": "TGI", "setting": "IGROV1 ovarian", "value": 107, "unit": "nM"},
      {"measurement": "TGI", "setting": "K-562 leukemia", "value": "> 100", "unit": "µM"},
      {"measurement": "TGI", "setting": "KM12 colon", "value": 577, "unit": "nM"},
      {"measurement": "TGI", "setting": "M14 melanoma", "value": 29.8, "unit": "nM"},
      {"measurement": "TGI", "setting": "MCF7 breast", "value": 259, "unit": "nM"},
      {"measurement": "TGI", "setting": "MDA-MB-231 breast", "value": 49.4, "unit": "nM"},
      {"measurement": "TGI", "setting": "MDA-N", "value": 66.1, "unit": "nM"},
      {"measurement": "TGI", "setting": "MOLT-4 leukemia", "value": 1080, "unit": "nM"},
      {"measurement": "TGI", "setting": "NCI-H460 lung", "value": 778, "unit": "nM"},
      {"measurement": "TGI", "setting": "NCI-H522 lung", "value": 13.7, "unit": "nM"},
      {"measurement": "TGI", "setting": "OVCAR-3 ovarian", "value": 215, "unit": "nM"},
      {"measurement": "TGI", "setting": "OVCAR-4 ovarian", "value": 23.4, "unit": "nM"},
      {"measurement": "TGI", "setting": "OVCAR-5 ovarian", "value": 289, "unit": "nM"},
      {"measurement": "TGI", "setting": "OVCAR-8 ovarian", "value": 202, "unit": "nM"},
      {"measurement": "TGI", "setting": "PC-3 prostate", "value": 214, "unit": "nM"},
      {"measurement": "TGI", "setting": "RPMI-8226 leukemia", "value": "> 100", "unit": "µM"},
      {"measurement": "TGI", "setting": "SF-268 CNS", "value": 265, "unit": "nM"},
      {"measurement": "TGI", "setting": "SF-295 CNS", "value": 1340, "unit": "nM"},
      {"measurement": "TGI", "setting": "SF-539 CNS", "value": 73.8, "unit": "nM"},
      {"measurement": "TGI", "setting": "SK-MEL-2 melanoma", "value": 288, "unit": "nM"},
      {"measurement": "TGI", "setting": "SK-MEL-28 melanoma", "value": 505, "unit": "nM"},
      {"measurement": "TGI", "setting": "SK-OV-3 ovarian", "value": 1560, "unit": "nM"},
      {"measurement": "TGI", "setting": "SN12C renal", "value": 69.6, "unit": "nM"},
      {"measurement": "TGI", "setting": "SNB-75 CNS", "value": 345, "unit": "nM"},
      {"measurement": "TGI", "setting": "SW-620 colon", "value": "> 100", "unit": "µM"},
      {"measurement": "TGI", "setting": "TK-10 renal", "value": 103, "unit": "nM"},
      {"measurement": "TGI", "setting": "UACC-257 melanoma", "value": 1130, "unit": "nM"},
      {"measurement": "TGI", "setting": "UACC-62 melanoma", "value": 324, "unit": "nM"},
      {"measurement": "TGI", "setting": "UO-31 renal", "value": 179, "unit": "nM"}
    ]}
  ]
}
